Reference: patent US9611503B2, “Escherichia coli cell line with thyA knockout and folA knockout” (priority 2011, dated 2017)

Tests used:
[1] = tested on: E. coli thyA folA KO + Pf TM4; assay: microbe, parasite or virus in culture; type: cell-based; conditions: Escherichia coli; host expressing P. falciparum TM4 DHFR-TS; minimal media with ampicillin, 37 degrees Celsius, 6 hours, OD 600 nm
[2] = tested on: E. coli thyA folA KO + Pf K1; assay: microbe, parasite or virus in culture; type: cell-based; conditions: Escherichia coli; host expressing P. falciparum K1 DHFR-TS; minimal media with ampicillin, 37 degrees Celsius, 6 hours, OD 600 nm
[3] = tested on: E. coli thyA folA KO + Pv wt; assay: microbe, parasite or virus in culture; type: cell-based; conditions: Escherichia coli; host expressing P. vivax wildtype DHFR-TS; 6 hours, OD 600 nm
[4] = tested on: E. coli thyA folA KO + Pv mt; assay: microbe, parasite or virus in culture; type: cell-based; conditions: Escherichia coli; host expressing P. vivax sp21 double mutant DHFR-TS; 6 hours, OD 600 nm
[5] = tested on: E. coli thyA folA KO + Pm wt; assay: microbe, parasite or virus in culture; type: cell-based; conditions: Escherichia coli; host expressing P. malariae wildtype DHFR-TS; 6 hours, OD 600 nm
[6] = tested on: E. coli thyA folA KO + Tb wt; assay: microbe, parasite or virus in culture; type: cell-based; conditions: Escherichia coli, 6 h
[7] = tested on: E. coli thyA folA KO + Tg wt; assay: microbe, parasite or virus in culture; type: cell-based; conditions: Escherichia coli; host expressing Toxoplasma gondii wildtype DHFR-TS; 6 hours, OD 600 nm
[8] = tested on: E. coli thyA folA KO + Tg mt; assay: microbe, parasite or virus in culture; type: cell-based; conditions: Escherichia coli; host expressing Toxoplasma gondii double mutant DHFR-TS; 6 hours, OD 600 nm
[9] = tested on: E. coli thyA folA KO + Lm wt; assay: microbe, parasite or virus in culture; type: cell-based; conditions: Escherichia coli; host expressing Leishmania major DHFR-TS; 6 hours, OD 600 nm
[10] = molecular target: DHFR-TS from Plasmodium malariae (wildtype) (Plasmodium malariae, UniProt A0A1D3JLL1); assay: In vitro biochemical enzyme inhibition assay, purified DHFR-TS; conditions: purified P. malariae wildtype DHFR-TS
Chain of DHFR-TS from Plasmodium malariae (wildtype) (A0A1D3JLL1 entry or part of it): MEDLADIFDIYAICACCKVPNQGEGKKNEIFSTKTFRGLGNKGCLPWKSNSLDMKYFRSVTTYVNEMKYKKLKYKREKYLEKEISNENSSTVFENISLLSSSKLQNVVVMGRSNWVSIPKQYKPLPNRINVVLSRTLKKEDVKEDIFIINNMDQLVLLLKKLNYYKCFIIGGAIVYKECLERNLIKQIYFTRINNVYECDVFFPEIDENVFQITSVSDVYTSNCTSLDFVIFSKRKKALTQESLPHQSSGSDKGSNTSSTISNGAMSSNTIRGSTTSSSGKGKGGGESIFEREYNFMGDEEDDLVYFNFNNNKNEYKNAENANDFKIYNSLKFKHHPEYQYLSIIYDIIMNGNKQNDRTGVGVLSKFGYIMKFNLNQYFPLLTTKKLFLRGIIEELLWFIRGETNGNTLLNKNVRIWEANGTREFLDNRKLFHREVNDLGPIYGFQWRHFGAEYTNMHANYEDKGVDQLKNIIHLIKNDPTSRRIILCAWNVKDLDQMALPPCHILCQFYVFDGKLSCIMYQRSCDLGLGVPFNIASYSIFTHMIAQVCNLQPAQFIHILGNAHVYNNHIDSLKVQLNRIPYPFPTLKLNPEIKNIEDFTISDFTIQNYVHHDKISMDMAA

Question: What does the source list for CCc1nc(N)nc(N)c1-c1ccc(Cl)cc1 [Pyrimethamine]?
Answer: IC50 [1]: 0.07 ± 0.01 µM; IC50 [2]: 31.93 ± 0.16 µM; IC50 [3]: 3.08 ± 0.33 µM; IC50 [4]: > 100 µM; IC50 [5]: 0.77 ± 0.22 µM; IC50 [6]: > 100 µM; IC50 [7]: > 100 µM; IC50 [8]: > 100 µM; IC50 [9]: > 100 µM; Ki [10]: 0.00054 ± 6e-05 µM
